Assay results as given in PubChem BioAssay (NCI).
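Dose response: 5 concentrations. Exposure: 48 h. Format: 96-well plates. Endpoint: linear interpolation; highest concentration if not reached. GI50: concentration for 50% inhibition of growth. TGI marks complete inhibition of growth.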

Assays:
Assay in all cases: growth of human tumour cells (NCI), 48 h
[1] = tested on: 786-0 renal
[2] = tested on: A498 renal
[3] = tested on: A549 NSCLC
[4] = tested on: ACHN renal
[5] = tested on: BT-549 breast
[6] = tested on: CAKI-1 renal
[7] = tested on: CCRF-CEM leukemia
[8] = tested on: COLO 205 colon
[9] = tested on: DU-145 prostate
[10] = tested on: EKVX NSCLC
[11] = tested on: HCC-2998 colon
[12] = tested on: HCT-116 colon
[13] = tested on: HCT-15 colon
[14] = tested on: HL-60(TB) leukemia
[15] = tested on: HOP-62 NSCLC
[16] = tested on: HOP-92 NSCLC
[17] = tested on: HS 578T breast
[18] = tested on: HT29 colon
[19] = tested on: IGROV1 ovarian
[20] = tested on: K-562 leukemia
[21] = tested on: KM12 colon
[22] = tested on: LOX IMVI melanoma
[23] = tested on: M14 melanoma
[24] = tested on: MALME-3M melanoma
[25] = tested on: MCF7 breast
[26] = tested on: MDA-MB-231 breast
[27] = tested on: MDA-MB-435
[28] = tested on: MDA-MB-468 breast
[29] = tested on: MOLT-4 leukemia
[30] = tested on: NCI-H226 lung
[31] = tested on: NCI-H23 lung
[32] = tested on: NCI-H460 lung
[33] = tested on: NCI-H522 lung
[34] = tested on: NCI/ADR-RES ovarian
[35] = tested on: OVCAR-3 ovarian
[36] = tested on: OVCAR-4 ovarian
[37] = tested on: OVCAR-5 ovarian
[38] = tested on: OVCAR-8 ovarian
[39] = tested on: PC-3 prostate
[40] = tested on: RPMI-8226 leukemia
[41] = tested on: RXF 393 renal
[42] = tested on: SF-268 CNS
[43] = tested on: SF-295 CNS
[44] = tested on: SF-539 CNS
[45] = tested on: SK-MEL-2 melanoma
[46] = tested on: SK-MEL-28 melanoma
[47] = tested on: SK-MEL-5 melanoma
[48] = tested on: SK-OV-3 ovarian
[49] = tested on: SN12C renal
[50] = tested on: SNB-19 CNS
[51] = tested on: SNB-75 CNS
[52] = tested on: SW-620 colon
[53] = tested on: T-47D breast
[54] = tested on: TK-10 renal
[55] = tested on: U251 CNS
[56] = tested on: UACC-257 melanoma
[57] = tested on: UACC-62 melanoma
[58] = tested on: UO-31 renal

Structure (SMILES): COc1ccc(-c2nc3cc(C)ccc3n2CC(=O)N=Nc2c(O)[nH]c3ccccc23)cc1
- GI50 [1]: 12.7 µM
- TGI [1]: 26 µM
- GI50 [2]: 11.8 µM
- TGI [2]: 25.7 µM
- GI50 [3]: 1.88 µM
- TGI [3]: 4.02 µM
- GI50 [4]: 3.03 µM
- TGI [4]: 11.9 µM
- GI50 [5]: 1.77 µM
- TGI [5]: 4.98 µM
- GI50 [6]: 2.86 µM
- TGI [6]: 11.6 µM
- GI50 [7]: 3.54 µM
- TGI [7]: 17.4 µM
- GI50 [8]: 3.73 µM
- TGI [8]: 14 µM
- GI50 [9]: 3.57 µM
- TGI [9]: 14 µM
- GI50 [10]: 3.67 µM
- TGI [10]: 15.5 µM
- GI50 [11]: 13.1 µM
- TGI [11]: 26.1 µM
- GI50 [12]: 1.86 µM
- TGI [12]: 3.71 µM
- GI50 [13]: 3.66 µM
- TGI [13]: 14.5 µM
- GI50 [14]: 5.5 µM
- TGI [14]: 29.2 µM
- GI50 [15]: 3.7 µM
- TGI [15]: 18.2 µM
- GI50 [16]: 1.94 µM
- TGI [16]: 6.3 µM
- GI50 [17]: 2.27 µM
- TGI [17]: 7.12 µM
- GI50 [18]: 1.82 µM
- TGI [18]: 3.52 µM
- GI50 [19]: 11.9 µM
- TGI [19]: 25 µM
- GI50 [20]: 3.23 µM
- TGI [20]: 43.5 µM
- GI50 [21]: 3.96 µM
- TGI [21]: 16 µM
- GI50 [22]: 6.32 µM
- TGI [22]: 20.8 µM
- GI50 [23]: 2.31 µM
- TGI [23]: 5.4 µM
- GI50 [24]: 2.17 µM
- TGI [24]: 4.42 µM
- GI50 [25]: 2.17 µM
- TGI [25]: 5.7 µM
- GI50 [26]: 2.06 µM
- TGI [26]: 4.64 µM
- GI50 [27]: 2.47 µM
- TGI [27]: 6.24 µM
- GI50 [28]: 2.26 µM
- TGI [28]: 5.87 µM
- GI50 [29]: 3.65 µM
- TGI [29]: 15.8 µM
- GI50 [30]: 1.88 µM
- TGI [30]: 4.13 µM
- GI50 [31]: 4.15 µM
- TGI [31]: 15.8 µM
- GI50 [32]: 2.17 µM
- TGI [32]: 4.87 µM
- GI50 [33]: 4.68 µM
- TGI [33]: 19.5 µM
- GI50 [34]: 2.58 µM
- TGI [34]: 6.66 µM
- GI50 [35]: 1.85 µM
- TGI [35]: 4.14 µM
- GI50 [36]: 2.17 µM
- TGI [36]: 5.41 µM
- GI50 [37]: 2.4 µM
- TGI [37]: 8.1 µM
- GI50 [38]: 2.19 µM
- TGI [38]: 4.87 µM
- GI50 [39]: 2.42 µM
- TGI [39]: 7.01 µM
- GI50 [40]: 6.69 µM
- TGI [40]: 28.8 µM
- GI50 [41]: 1.55 µM
- TGI [41]: 3.71 µM
- GI50 [42]: 2.52 µM
- TGI [42]: 9.61 µM
- GI50 [43]: 5.4 µM
- TGI [43]: 18.8 µM
- GI50 [44]: 1.67 µM
- TGI [44]: 3.08 µM
- GI50 [45]: 10.3 µM
- TGI [45]: 23.5 µM
- GI50 [46]: 1.71 µM
- TGI [46]: 3.26 µM
- GI50 [47]: 2.61 µM
- TGI [47]: 10.6 µM
- GI50 [48]: 2.32 µM
- TGI [48]: 6.06 µM
- GI50 [49]: 1.71 µM
- TGI [49]: 3.83 µM
- GI50 [50]: 4.11 µM
- TGI [50]: 15.3 µM
- GI50 [51]: 1.55 µM
- TGI [51]: 4.33 µM
- GI50 [52]: 3.03 µM
- TGI [52]: 16.3 µM
- GI50 [53]: 3.15 µM
- TGI [53]: 17.8 µM
- GI50 [54]: 10.5 µM
- TGI [54]: 23.7 µM
- GI50 [55]: 2.86 µM
- TGI [55]: 9.2 µM
- GI50 [56]: 2.38 µM
- TGI [56]: 6.76 µM
- GI50 [57]: 2.14 µM
- TGI [57]: 6.96 µM
- GI50 [58]: 12.2 µM
- TGI [58]: 24.8 µM
